Source: patent US7138388B2, “Methods to treat autoimmune and inflammatory conditions” (Celmed Oncology (USA), Inc., priority 2001, dated 2006)

Test system: animals with collagen-induced arthritis
Experiment: Collagen-induced arthritis in mice: treatment after disease onset, assessed by clinical score and paw swelling
Assay type: in vivo, male DBA/1 mice
Protocol: Arthritis was induced in male DBA/1 mice (8–10 weeks old) by intradermal injection of bovine type II collagen, purified in-house at the Kennedy Institute of Rheumatology as previously described (Miller, E. J. et al. (1972)). Collagen was administered in complete Freund's adjuvant (Difco, Detroit, Michigan). Onset of arthritis was variable, occurring from Day 14 up to Day 40 after immunization. Arthritis onset was considered to occur on the day that swelling and/or erythema were observed. Clinical score is a composite of disease severity and the number of limbs affected, and was monitored daily from onset of disease and used as an assessment of disease progress. The scoring used was: 0, Normal; 1, slight swelling with erythema; 2, pronounced swelling; 3, joint rigidity. In addition, the extent of paw swelling reflects the degree of edema in affected limbs. Arthritis increased progressively over 10 days as reflected by both clinical score and paw swelling.
Anti-TNF antibody was used in these experiments was as described by Marinova-Mutafchieva, L. et al. (2000). NB1011 was administered daily by intraperitoneal administration at 2.5 mg total dose per day. Anti-TNF antibody was compared with NB1011 because, at present, antiTNF antibody is the optimal single agent for treatment of collagen induced arthritis (Marinova-Mutafchieva, L. et al. (2000)).
Following immunization with collagen, mice were maintained until a significant clinical score for disease progression was achieved (between 2.5 and 3.5, see FIG. 1 and Methods). Mice were then treated with control saline injections, NB1011, or with anti-TNF antibody as a positive control. […] Paw swelling is an alternative measure of CIA disease severity.

Substance: 5-(2-Bromovinyl)-2′-deoxyuridine phenyl N-methoxy-L-alaninyl phosphoramidate [NB1011]
- difference between NB1011 and anti-TNF groups with regard to clinical score (FIG. 1, NB1011 compared with anti-TNF positive control): no significant difference
- disease suppression by clinical score (FIG. 1, vs saline-treated control group, p<0.05, NB1011 intraperitoneal daily, 2.5 mg total dose per day, treatment started at clinical score between 2.5 and 3.5): significant disease suppression
- difference between NB1011 and anti-TNF groups with regard to paw swelling (FIG. 2, NB1011 compared with anti-TNF positive control): no significant difference
- suppression of swelling relative to anti-TNF group (FIG. 2, qualitative remark): may have been less dramatic
- disease suppression by paw swelling (FIG. 2, vs saline-treated control group, p<0.05, NB1011 intraperitoneal daily, 2.5 mg total dose per day): significant disease suppression
- activity by comparison with earlier reported work on other agents (comparison with literature (Malfait 2000; Miotla 2000; Marinova-Mutafchieva 2000)): superior to anti-angiogenesis agents, an anti-CD4 immunosuppressive agent, and cannabidiol
